{
  "source": "patent US11141421B2",
  "about": "“Antitumor agent for biliary tract cancer and method for treating biliary tract cancer” (FUJIFILM Corporation, priority 2018, dated 2021)",
  "key": {"bile duct cancer": {"tested_on": "bile duct cancer", "test": "Administration of Compound A via intravenous injection to bile duct cancer patients; therapeutic effects judged by MRI image diagnosis", "format": "in vivo, human", "parameters": "key to Therapeutic effects of the present invention: CR (Complete Response): A state in which the tumor completely disappeared.; PR (Partial Response): A state in which a sum of the sizes of the tumors was reduced by 30% or more.; SD (Stable Disease): A state in which the size of the tumor did not change.; PD (Progressive Disease): A state in which a sum of the sizes of the tumors was increased by 20% or more and also, the size was increased by 5 mm or more even at an absolute value, or a new lesion appeared", "protocol": "This liquid pharmaceutical preparation was used in the subsequent therapy. Besides, the therapy was carried out at the University of Texas MD Anderson Cancer Center (hereinafter referred to as MDACC), and at Sarah Cannon Research Institute (hereinafter referred to as SCRI) in Denver, State of Colorado, U.S.A.\n(§1) A medication cycle consisting of administration of Compound A via intravenous injection once a week from the 1st week to the 3rd week and cessation of medication in the 4th week was repeated to bile duct cancer patients Specifically, 28 days was set at one cycle, and on the 1st day, 8th day and 15th day, Compound A was administered to the patients. This cycle consisting of 28 days was repeated. A single dose of compound A was set from 40 mg/m^2 to 135 mg/m^2.\nThe therapeutic effects were judged according to the following criteria.\nEvaluation targets were confirmed by performing image diagnosis using MRI (magnetic resonance imaging), and were then judged according to the following criteria:\nCR (Complete Response): A state in which the tumor completely disappeared.\nPR (Partial Response): A state in which a sum of the sizes of the tumors was reduced by 30% or more.\nPD (Progressive Disease): A state in which a sum of the sizes of the tumors was increased by 20% or more and also, the size was increased by 5 mm or more even at an absolute value, or a new lesion appeared."}, "tumor": {"tested_on": "tumor", "details": "orally administered to mice; cited from earlier work"}, "[1]": {"test": "Side effects / drug associated AE in the clinical trial of Compound A", "format": "in vivo, human", "protocol": "as §1\nBile duct cancer patient 6 is intrahepatic cholangiocarcinoma. […] Further, due to neutropenia, the dose was changed to 67.5 mg/m^2. Thereafter, SD could be maintained for 34 weeks or more."}},
  "data": [
    {"smiles": "Nc1ccn([C@@H]2S[C@H](CO)[C@@H](O)[C@@H]2F)c(=O)n1", "note": "[Compound A, 1-(2-deoxy-2-fluoro-4-thio-β-D-arabinofuranosyl)cytosine]", "values": [
      {"measurement": "Therapeutic effects of the present invention", "setting": "bile duct cancer; bile duct cancer patient 1 (intrahepatic bile duct cancer), single dose 40 mg/m^2 iv, days 1, 8, 15 of 28-day cycle", "result": "PR (PR (Partial Response): A state in which a sum of the sizes of the tumors was reduced by 30% or more.)"},
      {"measurement": "Therapeutic effect after dose increase", "setting": "bile duct cancer; bile duct cancer patient 1, single dose increased to 60 mg/m^2 or 90 mg/m^2", "result": "PR (PR (Partial Response): A state in which a sum of the sizes of the tumors was reduced by 30% or more.)"},
      {"measurement": "Therapeutic effects of the present invention", "setting": "bile duct cancer; bile duct cancer patient 2 (intrahepatic bile duct cancer), single dose 60 mg/m^2 iv", "result": "PR (PR (Partial Response): A state in which a sum of the sizes of the tumors was reduced by 30% or more.)"},
      {"measurement": "Therapeutic effects of the present invention", "setting": "bile duct cancer; bile duct cancer patient 3 (bile duct cholangiocarcinoma), initial dose 60 mg/m^2, changed to 90 mg/m^2", "result": "SD"},
      {"measurement": "time for which SD could be maintained", "setting": "bile duct cancer; bile duct cancer patient 3, initial dose 60 mg/m^2, changed to 90 mg/m^2", "result": "≥ 32", "unit": "weeks"},
      {"measurement": "Therapeutic effects of the present invention", "setting": "bile duct cancer; bile duct cancer patient 4, single dose 90 mg/m^2 iv", "result": "PD (PD (Progressive Disease): A state in which a sum of the sizes of the tumors was increased by 20% or more and also, the size was increased by 5 mm or more even at an absolute value, or a new lesion appeared.)"},
      {"measurement": "Therapeutic effects of the present invention", "setting": "bile duct cancer; bile duct cancer patient 5, single dose 90 mg/m^2 iv", "result": "SD"},
      {"measurement": "Therapeutic effects of the present invention", "setting": "bile duct cancer; bile duct cancer patient 6 (intrahepatic cholangiocarcinoma), single dose 90 mg/m^2 in Table 1 (text: 135, then 90, then 67.5 mg/m^2)", "result": "SD"},
      {"measurement": "time for which SD could be maintained", "setting": "bile duct cancer; bile duct cancer patient 6, after dose changes 135 to 90 to 67.5 mg/m^2", "result": "≥ 34", "unit": "weeks"},
      {"measurement": "antitumor activity", "setting": "tumor", "result": "strong antitumor activity"},
      {"measurement": "side effect leading to further dose change", "setting": "[1]; bile duct cancer patient 6, dose 90 mg/m^2 (then changed to 67.5 mg/m^2)", "result": "neutropenia"},
      {"measurement": "side effects observed", "setting": "[1]; bile duct cancer patient 6, initial dose 135 mg/m^2", "result": "hypotension and suspected bacteremia"},
      {"measurement": "most common drug associated AE among two or more patients", "setting": "[1]; clinical trial, patients including bile duct cancer patients, 40 to 135 mg/m^2 iv", "result": "fever, nausea, chills, itch, irritating, dry skin, skin separation, and fatigue"}
    ]}
  ]
}
